In US11760773B2, “Small molecule drug conjugates of gemcitabine monophosphate” (MaveriX Oncology, Inc., priority 2018, dated 2023):
Where two headings read alike, the source gives them in different places. Values belong to the molecule of their own block, whether it stands above or below them.

Experiments:
[1] = Gemcitabine normal tissue and plasma PK in CD-1 mice (study e); type: in vivo; conditions: male CD-1 mice, iv gemcitabine, FIG. 6
Procedure: Objectives: to determine the normal tissue pharmacokinetics, distribution, and stability of gemcitabine in select excretory organs and plasma following a single intravenous infusion administration of gemcitabine at 10.5 mg/kg in male CD-1 mice.
PK measurements: determine PK parameters C0, CL, Vdss, Cmax, tmax, t1/2, AUC(0-t), AUC(0-inf), MRT(0-t), MRT(0-inf) for gemcitabine

[2] = Liver microsomal stability, monkey; type: in vitro ADME; conditions: monkey liver microsomes
[3] = Int 1-4 normal tissue and plasma PK in CD-1 mice (study d); type: in vivo; conditions: male CD-1 mice, iv Int 1-4, FIG. 5
Procedure: Objectives: to compare the normal tissue pharmacokinetics, distribution, and stability of Int 1-4 in excretory organs following a single intravenous infusion administration of Int 1-4 at 20 mg/kg in male CD-1 mice.
PK measurements: compare PK parameters C0, CL, Vdss, Cmax, tmax, t1/2, AUC(0-t), AUC(0-inf), MRT(0-t), MRT(0-inf) for Int 1-4

[4] = CD-1 mouse plasma stability; type: in vitro ADME
Procedure: Method: Assay was carried out in 96-well microtiter plates. Compounds were incubated in replicates (n=2) for 0, 5, 15, 30, and 45 minutes at 37° C. Reaction mixtures (20 μL) contained a final concentration of 3 μM test compound in fresh CD-1 mouse plasma. Eucatropine included as positive control to verify assay performance. Linear regression of semi-log plot of % remaining of compounds versus time used to determine the half-life t1/2 values.

Mouse liver S9 stability = type: in vitro ADME; conditions: for microsomal CLint: mouse
Dog liver S9 stability = type: in vitro ADME; conditions: for microsomal CLint: dog

SMILES: Nc1ccn([C@@H]2O[C@H](CO)[C@@H](O)C2(F)F)c(=O)n1 [Gemcitabine, gemcitabine]
- fate in plasma and normal tissue [1]: deaminated to dFdU

- half-life [2]: 0.567 h
- microsomal CLint [2]: 40.8 µL/min/mg
- Compound Remaining (% of 0 min) 0 min ([2]; 0 min): 100 % of 0 min
- Compound Remaining (% of 0 min) 5 min ([2]; 5 min): 99.5 % of 0 min
- Compound Remaining (% of 0 min) 15 min ([2]; 15 min): 79.8 % of 0 min
- Compound Remaining (% of 0 min) 30 min ([2]; 30 min): 61.0 % of 0 min
- Compound Remaining (% of 0 min) 45 min ([2]; 45 min): 40.5 % of 0 min
- Compound Remaining (% of 0 min) control ([2]; control): 97.2 % of 0 min
- stability in plasma and major excretory organs (liver, kidney) [3]: stable
- Slope Mean ± SE ([4]; 3 μM, 37° C., in min-1 (unit assumed)): −0.000906 ± 0.000706
- half-life at 3 μM ([4]; fresh CD-1 mouse plasma, 3 μM, 37° C., read-out: t1/2 Mean ± SE): 12.8 ± 9.94 h
- half-life at 3 μM ([4]; read-out: t1/2 (converted)): ~13 h
- Slope Mean ± SE (Mouse liver S9 stability; mouse liver S9): −0.00317 ± 0.000413
- half-life (Mouse liver S9 stability; mouse liver S9, read-out: t1/2 Mean ± SE): 3.64 ± 0.475 h
- microsomal CLint (Mouse liver S9 stability; liver S9, mouse liver S9, summary, read-out: S9 intrinsic clearance Clint): < 2.5 µL/min/mg
- microsomal CLint (Mouse liver S9 stability; liver S9, mouse liver S9, text value, read-out: intrinsic clearance value): 1.27 µL/min/mg
- microsomal CLint (Mouse liver S9 stability; liver S9, mouse liver S9, read-out: CLint Mean ± SE): 1.27 ± 0.165 µL/min/mg
- Slope Mean ± SE (Dog liver S9 stability; dog liver S9): −0.005558 ± 0.000749
- half-life (Dog liver S9 stability; dog liver S9, read-out: t1/2 Mean ± SE): 2.08 ± 0.28 h
- intrinsic clearance value (Dog liver S9 stability; dog liver S9 experiment): < 2.5 μL/min/mg protein
- microsomal CLint (Dog liver S9 stability; liver S9, dog liver S9, read-out: CLint Mean ± SE): 2.22 ± 0.299 µL/min/mg
- microsomal CLint (Dog liver S9 stability; liver S9, dog liver S9 experiment, read-out: intrinsic clearance value): 2.2 µL/min/mg
SMILES: COc1cc(OC)c2oc(COC(=O)Nc3ccn([C@@H]4O[C@H](CO)[C@@H](O)C4(F)F)c(=O)n3)cc2c1 [Int 1-4, (5,7-di(methoxy)benzofuran-2-yl)methyl (1-((2R,4R,5R)-3,3-difluoro-4-hydroxy-5-(hydroxymethyl)tetrahydrofuran-2-yl)-2-oxo-1,2-dihydropyrimidin-4-yl)carbamate]
